Results: patent publication US20020055465A1, “Nocathiacin antibiotics prepared by biotransformation or chemical methods” (priority 2000, published 2002)
Converted amounts (≈) assume the structure as drawn. Counter-ions that a name gives are not always drawn. Like-named read-outs stand apart in the source and are kept apart here.

Legend:
[1] = tested on: Moraxella catarrhalis/β-lactamase positive; assay: MIC, broth micro dilution assay (NCCLS); type: cell-based; conditions: strain A22344
Experimental: (§1) The serial broth dilution method used Mueller-Hinton medium except for the Streptococcus pneumoniae which was tested in 50% Mueller-Hinton medium and 50% Todd Hewitt medium. The final bacterial inoculate contained approximately 5×10^5 cfu/well and was run on microtiter plates. The volume of each well was 100 μL and the plates were incubated at 35° C. for 18 hours in ambient air. The MIC was defined as the lowest drug concentration that prevented visible growth.

[2] = tested on: Bacillus subtilis/ATCC6633; assay: MIC, broth micro dilution assay (NCCLS); type: cell-based
Experimental: as §1

Staphylococcus aureus = assay: MIC, broth micro dilution assay (NCCLS); type: cell-based
Experimental: as §1

[3] = tested on: Staphylococcus haemolyticus; assay: MIC, broth micro dilution assay (NCCLS); type: cell-based; conditions: strain A27298
Experimental: as §1

Enterococcus faecalis = assay: MIC, broth micro dilution assay (NCCLS); type: cell-based; conditions: strain A20688
Experimental: as §1

[4] = tested on: Staphylococcus epidermidis; assay: MIC, broth micro dilution assay (NCCLS); type: cell-based; conditions: strain A24548
Experimental: as §1

Streptococcus pneumoniae = assay: MIC, broth micro dilution assay (NCCLS); type: cell-based
Experimental: as §1

Enterococcus faecium = assay: MIC, broth micro dilution assay (NCCLS); type: cell-based
Experimental: as §1

[5] = tested on: Staphylococcus aureus A15090; assay: Systemic Staphylococcus aureus infection model; type: in vivo; conditions: female ICR mice infected IP with S. aureus A15090; compound SC at 1 and 4 hours post-infection
Experimental: Nocathiacin IV and nocathiacin IV 6-deoxyglucoside were evaluated for antibiotic activity in vivo, in a systemic infection model using female ICR mice. The animals were infected intraperitoneally (IP) with 6.5×10^6 CFU of an overnight culture of Staphylococcus aureus A15090 suspended in 7% mucin. The compound was dissolved in a test formulation consisting of 10% DMSO, 5% Tween 80 and 85% water. The solution was administered subcutaneously (SC) at 100 mg/kg total dose (2×50 mg/kg doses at 1 and 4 hours post-infection). The PD50 of nocathiacin IV was determined to be 1.07 mg/kg. The PD50 of nocathiacin IV 6-deoxyglucoside was determined to be 6.4 mg/kg.

[6] = 209P / ATCC 6538P, Staphylococcus aureus/209P/ATCC6538P, strain A9497
[7] = Staphylococcus aureus + 50% calf serum, strain A15090
[8] = Staphylococcus aureus + 50% calf serum, strain A27223
[9] = Staphylococcus aureus/homo methicillin resistant, strain A27223
[10] = Staphylococcus aureus/β lactamase positive, strain A15090
[11] = Enterococcus faecalis + 50% calf serum
[12] = Enterococcus faecalis, read-out: MIC
[13] = Streptococcus pneumoniae, strain A9585, 50% Mueller-Hinton/50% Todd Hewitt medium
[14] = Streptococcus pneumoniae/penicillin intermediate, strain A27881
[15] = Streptococcus pneumoniae/penicillin resistant, strain A28272, read-out: MIC
[16] = Enterococcus faecium/vancomycin resistant, strain A28142

| Compound | MIC [1] | MIC [2] | MIC (Staphylococcus aureus; [6]) | MIC (Staphylococcus aureus; [7]) | MIC (Staphylococcus aureus; [8]) | MIC (Staphylococcus aureus; [9]) | MIC (Staphylococcus aureus; [10]) | MIC [3] | MIC (Enterococcus faecalis; [11]) | MIC (Enterococcus faecalis; [12]) | MIC [4] | MIC (Streptococcus pneumoniae; [13]) | MIC (Streptococcus pneumoniae; [14]) | MIC (Streptococcus pneumoniae; [15]) | MIC (Enterococcus faecium; [16]) | MIC (Enterococcus faecium; strain A24885) | PD50 [5] |
| --- | --- | --- | --- | --- | --- | --- | --- | --- | --- | --- | --- | --- | --- | --- | --- | --- | --- |
| CO/C(C)=C1/NC(=O)C(C(C)O)NC(=O)c2csc(n2)-c2cc(OC3OC(C)C(O)C(O)C3O)c(-c3nc(C(N)=O)cs3)nc2-c2csc(n2)C2COC(=O)c3c4c5c(cccc5n3O)COC(=O)C(OC3CC(C)(O)C(N(C)C)C(C)O3)C(OC4)C(NC(=O)c3csc1n3)c1nc(cs1)C(=O)N2 (stereo not shown) [nocathiacin IV 6-deoxyglucoside] | 2 µg/mL (≈ 1.32 µM) | 0.5 µg/mL (≈ 0.33 µM) | 0.5 µg/mL (≈ 0.33 µM) | 0.25 µg/mL | 0.25 µg/mL | 0.5 µg/mL (≈ 0.33 µM) | 0.5 µg/mL (≈ 0.33 µM) | 0.5 µg/mL (≈ 0.33 µM) | 0.25 µg/mL | 0.25 µg/mL (≈ 0.165 µM) | 0.25 µg/mL (≈ 0.165 µM) | 0.03 µg/mL (≈ 0.0198 µM) | 0.03 µg/mL (≈ 0.0198 µM) | 0.03 µg/mL (≈ 0.0198 µM) | 0.5 µg/mL (≈ 0.33 µM) | 0.5 µg/mL (≈ 0.33 µM) | 6.4 mg/kg |
| CO/C(C)=C1/NC(=O)C(C(C)O)NC(=O)c2csc(n2)-c2cc(O)c(-c3nc(C(N)=O)cs3)nc2-c2csc(n2)C2COC(=O)c3c4c5c(cccc5n3O)COC(=O)C(OC3CC(C)(O)C(N(C)C)C(C)O3)C(OC4)C(NC(=O)c3csc1n3)c1nc(cs1)C(=O)N2 (stereo not shown) [nocathiacin IV] | – | – | – | – | – | – | – | – | – | – | – | – | – | – | – | – | 1.07 mg/kg |
| CO/C(C)=C1/NC(=O)C(C(C)O)NC(=O)c2csc(n2)-c2cc(O)c(-c3nc(C(N)=O)cs3)nc2-c2csc(n2)C2COC(=O)c3c4c5c(cccc5n3O)COC(=O)C(OC3CC(C)(O)C(N(C)C)C(C)O3)C(OC4)C(NC(=O)c3csc1n3)c1nc(cs1)C(=O)N2 (stereo not shown) [Nocathiacin IV (HCI salt), nocathiacin IV] | 0.25 µg/mL | 0.06 µg/mL | 0.03 µg/mL | 0.03 µg/mL | 0.03 µg/mL | 0.03 µg/mL | 0.03 µg/mL | 0.06 µg/mL | 0.03 µg/mL | 0.03 µg/mL | 0.06 µg/mL | 0.001 µg/mL | 0.001 µg/mL | 0.001 µg/mL | 0.03 µg/mL | 0.06 µg/mL | – |
